{"source": "patent US20240034753A1", "about": "“THERAPEUTIC PEPTIDES” (COHBAR, INC., priority 2020, published 2024)", "key": {"C2C12 Mouse Myoblasts": {"system": "C2C12 Mouse Myoblasts", "assay": "Glucose utilization (glucose remaining in medium)", "assay_type": "cell-based", "conditions": "metformin 1 mM, 18-22 hours", "experimental": "The effect of the peptides on glucose metabolism can be assessed using an assay of glucose utilization in cultured cells such as mouse myoblasts. Peptides were initially prepared as 10 mM stock in DMSO and used at a final concentration of 10 μM (0.1% DMSO). C2C12 mouse myoblast cell line was purchased from American Type Culture Collection (Manassas, VA). C2C12 cultures were maintained at 37° C. in a humidified atmosphere of 5% CO2/95% air with medium changes every second day. C2C12 cells were grown in DMEM (1 g/L glucose) supplemented with 10% FBS with 100 IU/ml penicillin and 100 μg/ml streptomycin. C2C12 cells were seeded at 7,000 cells per well on 96-well plates and cultured to confluence. Once the cell reached confluence the media was changed to DMEM (1 g/L glucose) supplemented with 2% HS with 100 IU/ml penicillin and 100 μg/ml streptomycin and maintained at 37° C. in a humidified atmosphere of 5% CO2/95% air. 5 days post-induction of differentiation fresh DMEM (1 g/L glucose) supplemented with 2% HS with 100 IU/ml penicillin and 100 μg/ml streptomycin was added to cultures. Cells were maintained at 37° C. in a humidified atmosphere of 5% CO2 and 95% air for 5 hours. After 5 hours test peptides at 10 μM or controls (0.5 mM or 1 mM metformin in 1% DMSO) prepared in fresh differentiation medium were added to cells and the cultures were maintained at 37° C. in a humidified atmosphere of 5% CO2/95% air for 18-22 hours. At the end of the incubation culture media was removed from the cells and the remaining glucose concentration was measured using a Glucose Assay kit (Abcam) according to the manufacturer's instructions, using a Cytation 3 plate reader at 570 nm (BioTek, Winooski, VT). Glucose concentrations in the medium were calculated relative to 0.1% DMSO treated control cells. The relative standard deviation of the result for the 0.1% DMSO treated control was <20%. Metformin was used as a positive control for reduction of glucose levels (increased glucose utilization glucose levels for treatment with metformin (1 mM) treatment were <20% of the 0.1% DMSO treated control value. The results are reported in Table 11."}, "[1]": {"assay": "PrestoBlue cell viability assay", "assay_type": "cell-based", "conditions": "human; read-out: Cell viability, % of background corrected DMSO control value", "experimental": "The effect of the peptides on cell viability can be assessed in cultured cells using suitable assay of viability such as the PrestoBlue® assay (Thermo Fisher Scientific, Waltham, MA). Peptides were initially prepared as 10 mM stock in DMSO and tested at a final concentration of 10 μM (0.1% DMSO). […] PrestoBlue Assay Reagent was purchased from Thermo Fisher Scientific. A172 human brain glioblastoma cell line was purchased from American Type Culture Collection (Manassas, VA). A172 cells were grown in DMEM supplemented with 10% FBS with 100 IU/ml penicillin and 100 μg/ml streptomycin. Cultures were maintained at 37° C. in a humidified atmosphere of 5% CO2/95% air. A172 cells were seeded at 8,000 cells per well on 96-well plates. […] Cell viability was determined using a PrestoBlue Assay reagent […] according to the manufacturer's instructions. Absorption for each sample well on the plate was measured using a Cytation 3 plate reader at 560 nm and 590 nm (BioTek, Winooski, VT). Activity was calculated relative to 0.1% DMSO untreated control. Treatment with 0.1% DMSO alone was used as the cell viability activity control. The relative standard deviation of the DMSO control was <5%."}, "[2]": {"system": "SH-SY5Y Neuroblastoma Cells", "assay": "ATP levels (CellTiter-Glo)", "assay_type": "cell-based, human", "conditions": "staurosporine 1 μM, 18-20 hours", "experimental": "The effect of the peptides on cellular metabolism can be assessed using an assay of ATP levels in cultured cells such as human neuroblastoma cells. Peptides were initially prepared as 10 mM stock in DMSO and used at a final concentration of 10 μM (0.1% DMSO). […] CellTiter-Glo® Assay kit was purchased from Promega. SH-SY5Y human bone marrow neuroblastoma cell line was purchased from American Type Culture Collection (Manassas, VA) and licensed from Memorial Sloan-Kettering Cancer Center (New York, NY). SH-SY5Y cells were grown in DMEM/F12 medium supplemented with 10% FBS with 100 IU/ml penicillin and 100 μg/ml streptomycin. Cultures were maintained at 37° C. in a humidified atmosphere of 5% CO2/95% air. SH-SY5Y cells were seeded at 30,000 cells per well on 96-well plates. […] ATP levels were determined using a CellTiter-Glo Assay kit (Promega) according to the manufacturer's instructions. Luminescence for each sample well on the plate was measured using a Cytation 3 plate reader (BioTek, Winooski, VT). Activity was calculated relative to 0.1% DMSO treated control. The relative standard deviation of the result for the 0.1% DMSO treated control was <5%."}, "3T3-L1 Mouse Adipocytes": {"system": "3T3-L1 Mouse Adipocytes", "assay": "Free fatty acid levels in cultured mouse adipocytes stimulated with isoproterenol", "assay_type": "cell-based", "conditions": "insulin 100 nM, 3 hours with 1 nM isoproterenol", "experimental": "The effect of the peptides on fatty acid metabolism can be assessed using an assay of free fatty acid levels in cultured cells such as mouse adipocytes. Peptides were initially prepared as 10 mM stock in DMSO and used at a final concentration of 10 μM (0.1% DMSO). […] Mouse 3T3-L1 cells purchased from ZenBio were seeded at 3,000 cells per well in 96-well plates in Pre-adipocyte Medium (Zen-Bio) and grown to confluence at 37° C. in a humidified atmosphere of 5% CO2/95% air. Two days after confluence, cells were placed in Adipocyte Differentiation Medium (Zen-Bio) and cultured for three additional days at 37° C. in a humidified atmosphere of 5% CO2/95% air. The culture media was then replaced with Adipocyte Maintenance Medium (Zen-Bio) and the cells maintained for an additional 9-12 days at 37° C. in a humidified atmosphere of 5% CO2/95% air with partial medium replacement every other day. Following 12-15 days of differentiation, test peptides were added at a final concentration of 10 μM in 0.1% DMSO and incubated for 20-22 hours in Adipocyte Maintenance Medium at 37° C. in a humidified atmosphere of 5% CO2/95% air. After 20-22 hours, 1 nM isoproterenol was added to all wells except untreated controls and test peptides were replenished. Insulin at 100 nM was added to control wells. Cells were incubated for 3 hours in Assay Buffer (Zen-Bio) at 37° C. in a humidified atmosphere of 5% CO2/95% air. Free fatty acid concentrations in the media were determined using a Free Fatty Acid Assay kit (Zen-Bio) according to the manufacturer's instructions using a Cytation 3 plate reader at 540 nm (BioTek, Winooski, VT). Absorbance values were corrected for untreated background and expressed relative to isoproterenol treated cells. Treatment with isoproterenol (1 nM) alone was used as the free fatty acid level stimulatory control. The relative standard deviation of the isoproterenol control was <10%. […] Free fatty acid levels for insulin (100 nM) treatment were <5% of the isoproterenol control value."}}}
{"compound": "CN(C)C(=N)N=C(N)N", "note": "[Metformin, reference compound]", "values": [{"measurement": "Glucose levels, % of the 0.1% DMSO treated control value", "setting": "C2C12 Mouse Myoblasts", "result": "< 20", "unit": "%"}]}
{"compound": "CN[C@@H]1C[C@H]2O[C@@](C)([C@@H]1OC)n1c3ccccc3c3c4c(c5c6ccccc6n2c5c31)C(=O)NC4", "note": "[Staurosporine, reference compound]", "values": [{"measurement": "viability at 1 µM", "setting": "[1]", "result": "< 75", "unit": "%"}, {"measurement": "ATP levels, % of the 0.1% DMSO treated control value", "setting": "[2]", "result": "< 5", "unit": "%"}]}
{"compound": "Insulin [reference compound]", "values": [{"measurement": "Free fatty acid levels, % of the isoproterenol control value", "setting": "3T3-L1 Mouse Adipocytes", "result": "< 5", "unit": "%"}]}
